This note sets out measurements from US20260365628A1, “SUBSTITUTED 3,4-DIHYDROQUINOLINONE INHIBITORS OF TSHR” (Septerna, Inc., priority 2022, published 2026).

The target in this assay is T1, hTSHR (Homo sapiens, UniProt P16473).
T1 construct: expressed in transfected cells
The assay is described as follows: hTSHR TR-FRET cAMP Assay (inhibition of M22-stimulated cAMP production). Particulars: Expi293F Inducible cells stably expressing hTSHR; cAMP HTRF; stimulated with EC80 of anti-TSHR antibody M22; 15 min compound preincubation, 30 min at 37° C.; read-out: Activity (IC50 bins). It counts as cell-based. As for the experimental part: Assays were performed using Expi293F Inducible cells (Invitrogen) stably expressing hTSHR via a pcZeo TetO DNA plasmid. Cell lines were maintained in suspension in Expi293 Expression Medium (ThermoFisher Scientific) supplemented with 10 µg/mL Blasticidin and 10 μg/mL Zeocin and incubated at 37° C., 8% CO2, with shaking. hTSHR cells were incubated overnight at 32° C., 5% C02, with shaking, but […] Doxycycline. Assay-ready aliquots were prepared by harvesting each cell type separately 24-hours post-induction. Cells were pelleted at 4° C., resuspended in Expi293 Expression media+10% DMSO, aliquoted, and kept frozen at −80° C. until ready for use.
For the assay, concentration-response curves of test and reference compounds were added to 384-well plates using an Echo 650 liquid handler (Beckman Coulter) and backfilled with DMSO to a final concentration of 0.5%. cAMP was measured using the cisbio cAMP Gs dynamic HTRF kit (PerkinElmer) according to manufacturer instructions. Aliquots of frozen hTSHR cells were quickly thawed and washed with phosphate-buffered saline (Sigma-Aldrich) to remove media and DMSO. The cells were resuspended in kit-supplied Stimulation Buffer at 0.8×10^6 cells/mL. 7.5 μL of the hTSHR cell dilution were added to each well of the assay plate and incubated with the compounds for 15 minutes in a 37 C, 0% CO2 incubator. 2.5 μL of Vehicle control or an EC80 concentration of recombinant human anti-TSHR antibody (M22, Creative Biolabs) was added to stimulate cAMP production. Cells were incubated with for 30 minutes at 37° C., 0% CO2. Following this incubation, the cells were lysed and accumulated cAMP was detected through the addition of kit-supplied lysis buffer containing d2-reagent and Eu-cryptate antibody. The HTRF signal was quantified using a BMG Clariostar plate reader optimized for HTRF assays. The HTRF ratio was determined by dividing the signal output at […] by that at 620 nm. Data were normalized to the signal produced by the EC80 concentration of either M22 or FSH (0% inhibition) and vehicle (no agonist, 100% inhibition).
In general terms: TR-FRET usually uses a lanthanide donor and a delayed reading to cut background.

For orientation: IC50 means the concentration that inhibits the measured activity by half.

T1 sequence (P16473 21-764): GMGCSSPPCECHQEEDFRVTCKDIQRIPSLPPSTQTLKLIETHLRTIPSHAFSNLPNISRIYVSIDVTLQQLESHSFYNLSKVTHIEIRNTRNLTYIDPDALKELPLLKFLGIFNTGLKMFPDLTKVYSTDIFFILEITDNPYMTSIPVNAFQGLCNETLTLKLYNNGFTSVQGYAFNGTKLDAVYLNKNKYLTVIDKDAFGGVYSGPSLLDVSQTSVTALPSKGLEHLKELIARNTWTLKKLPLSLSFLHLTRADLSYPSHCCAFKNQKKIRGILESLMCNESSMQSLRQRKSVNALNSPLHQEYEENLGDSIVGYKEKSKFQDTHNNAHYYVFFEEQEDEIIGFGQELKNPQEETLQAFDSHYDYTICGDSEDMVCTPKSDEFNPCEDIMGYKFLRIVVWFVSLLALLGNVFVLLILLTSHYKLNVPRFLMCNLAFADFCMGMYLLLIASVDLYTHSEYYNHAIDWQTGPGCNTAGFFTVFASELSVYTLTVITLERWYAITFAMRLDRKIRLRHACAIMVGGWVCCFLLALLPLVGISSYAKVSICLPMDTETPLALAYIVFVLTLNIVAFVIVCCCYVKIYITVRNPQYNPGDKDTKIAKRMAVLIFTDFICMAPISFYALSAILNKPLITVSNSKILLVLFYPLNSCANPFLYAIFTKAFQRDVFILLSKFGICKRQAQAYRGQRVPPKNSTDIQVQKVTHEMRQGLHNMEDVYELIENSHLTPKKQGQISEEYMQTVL

Turning to `CC(C)(C)NC(=O)Nc1ccc2c(c1)ncc(=O)n2Cc1cccc2c1OCCC2` [Example 96, 1-(tert-buty1)-3-(1-(chroman-8-ylmethyl)-2-oxo-1,2-dihydro-quinoxalin-6-yl)urea], the IC50 was 100 to 1000 nM.

Regarding `C[C@H]1Oc2cc(NC(=O)NC3(C)CC(F)(F)C3)ccc2N(Cc2cccc(C(F)(F)F)n2)C1=O` [Example 231, (R)-1-(3,3-difluoro-1-methylcyclobutyl)-3-(2-methyl-3-oxo-4-((6-(trifluoromethyl)pyridin-2-yl)methyl)-3,4-dihydro-2H-benzo[b][1,4]oxazin-7-yl)urea], the half-maximal inhibitory concentration (IC50) lay within 100 to 1000 nM.

As for `C[C@H]1Oc2cc(NC(=O)N[C@H]3C[C@@H](C(F)(F)F)C3)ccc2N([C@@H](C)c2cccc(OC(F)(F)F)c2)C1=O` [Example 325, 1-((R)-2-methyl-3-oxo-4-((S)-1-(3-(trifluoromethoxy)phenyl)ethyl)-3,4-dihydro-2H-benzo[b][1,4]oxazin-7-yl)-3-((1s,3S)-3-(trifluoromethyl)cyclobutyl)urea], the IC50 lay in the range of 100 to 1000 nM.

For `C[C@@H](c1cccc(CCOCC(C)(C)O)c1)n1c(=O)cnc2cc(NC(=O)NC(C)(C)C)ccc21` [Example 121, (S)-1-(tert-butyl)-3-(1-(1-(3-(2-(2-hydroxy-2-methylpropoxy)ethyl)phenyl)ethyl)-2-oxo-1,2-dihydroquinoxalin-6-yl)urea], the IC50 is more than 1000 nM.

With `CC(C)(C#N)CNC(=O)Nc1ccc2c(c1)ncc(=O)n2Cc1cccc(OC(F)(F)F)c1` [Example 241, 1-(2-cyano-2-methylpropyl)-3-(2-oxo-1-(3-(trifluoromethoxy)benzyl)-1,2-dihydroquinoxalin-6-yl)urea], the 50% inhibitory concentration (IC50) was more than 1000 nM.

Consider `CC(C)(C)NC(=O)Nc1ccc2c(c1)CCC(=O)N2Cc1cccc(C(F)(F)F)c1C#N` [Example 59, 1-(tert-butyl)-3-(1-(2-cyano-3-(trifluoromethyl)benzyl)-2-oxo-1,2,3,4-tetrahydroquinolin-6-yl)urea], for which the IC50 is 100 to 1000 nM.

As for `C[C@@H]1Oc2cc(NC(=O)NC(C)(C)C)ccc2N(Cc2ccccc2)C1=O` [Example 42, (S)-1-(4-benzyl-2-methyl-3-oxo-3,4-dihydro-2H-benzo[b][1,4]oxazin-7-yl)-3-(tert-butyl)urea], the IC50 was less than 100 nM.

In the case of `C[C@@H](c1cccc2c1COCC2)n1c(=O)cnc2cc(NC(=O)NC(C)(C)C)ccc21` [Example 123, (S)-1-(tert-butyl)-3-(1-(1-(isochroman-8-yl)ethyl)-2-oxo-1,2-dihydroquinoxalin-6-yl)urea], the half-maximal inhibitory concentration (IC50) was in the range of 100 to 1000 nM.

Take `CC(C)(C)NC(=O)Nc1ccc2c(c1)CCC(=O)N2Cc1cc(Cl)cc(Cl)c1` [Example 25, 1-(tert-butyl)-3-(1-(3,5-dichlorobenzyl)-2-oxo-1,2,3,4-tetrahydroquinolin-6-yl) urea]: the IC50 is less than 100 nM.

As to `C[C@H](c1cccc(OCC(F)(F)F)c1)n1c(=O)cnc2cc(NC(=O)NC(C)(C)C)ccc21` [Example 314, (R)-1-(tert-butyl)-3-(2-oxo-1-(1-(3-(2,2,2-trifluoroethoxy)phenyl)ethyl)-1,2-dihydroquinoxalin-6-yl)urea], the half-maximal inhibitory concentration (IC50) was in the range of 100 to 1000 nM.

For the compound `C[C@H]1Oc2cc(NC(=O)NC3(C)CCC3)ccc2N(Cc2cccc(C(F)(F)F)n2)C1=O` [Example 226, 1-[(2R)-2-methyl-3-oxo-4-{[6-(trifluoromethyl)pyridin-2-yl]methyl}-2H-1,4-benzoxazin-7-yl]-3-(1-methylcyclobutyl)urea], the IC50 was less than 100 nM.

Turning to `CC(C)(C)NC(=O)Nc1ccc2c(c1)ncc(=O)n2Cc1cccc(C(F)(F)F)c1` [Example 90, 1-(tert-butyl)-3-(2-oxo-1-(3-(trifluoro-methyl)benzyl)-1,2-di-hydro-quinoxalin-6-yl)urea], the half-maximal inhibitory concentration (IC50) was in the range of 100 to 1000 nM.

With `C[C@H]1Oc2cc(NC(=O)NC(C)(C)C)ccc2N([C@@H](C)c2cccc(C(F)(F)F)n2)C1=O` [Example 186, 1-(tert-butyl)-3-((R)-2-methyl-3-oxo-4-((S)-1-(6-(trifluoromethyl)pyridin-2-yl)ethyl)-3,4-dihydro-2H-benzo[b][1,4]oxazin-7-yl)urea], the IC50 is less than 100 nM.

`C[C@@H](c1ccccc1)n1c(=O)cnc2cc(NC(=O)NC(C)(C)C)c(CO)cc21` [Example 360, (S)-1-(tert-butyl)-3-(7-(hydroxymethyl)-2-oxo-1-(1-phenylethyl)-1,2-dihydroquinoxalin-6-yl)urea]: the IC50 was more than 1000 nM.

Consider `CC1Cc2cc(NC(=O)NC(C)(C)C)ccc2N(Cc2ccccc2)C1=O` (centres unmarked) [Example 5, 1-(1-benzyl-3-methyl-2-oxo-1,2,3,4-tetrahydroquinolin-6-yl)-3-(tert-butyl)urea], for which the IC50 is less than 100 nM.

For the compound `O=C(Nc1ccccc1)Nc1ccc2c(c1)CCC(=O)N2Cc1ccccc1` [Example 284, 3-(1-benzyl-2-oxo-3,4-dihydroquinolin-6-yl)-1-phenylurea], the half-inhibitory concentration (IC50) was more than 1000 nM.

As to `C[C@@H](c1cccc(N(C)C)n1)n1c(=O)cnc2cc(NC(=O)NC(C)(C)C)ccc21` [Example 145, (S)-1-(tert-butyl)-3-(1-(1-(6-(dimethyl-amino)pyridin-2-yl)ethyl)-2-oxo-1,2-dihydroquinoxalin-6-yl)urea], the half-inhibitory concentration (IC50) lay in the range of 100 to 1000 nM.

As to `O=C(Nc1ccc2c(c1)ncc(=O)n2Cc1ccccc1)C1CCCC1` [Example 197, N-(1-benzyl-2-oxo-1,2 dihydroquinoxalin-6-yl)cyclopentanecar-boxamide], the IC50 is more than 1000 nM.

For the compound `C[C@@H](c1cc(Cl)ccc1F)n1c(=O)cnc2cc(NC(=O)NC(C)(C)C)ccc21` [Example 139, (S)-1-(tert-butyl)-3-(1-(1-(5-chloro-2-fluorophenyl)ethyl)-2-oxo-1,2-dihydroquinoxalin-6-yl)urea], the IC50 lay within 100 to 1000 nM.

Turning to `C[C@H]1Oc2nc(NC(=O)NC(C)(C)C)ccc2N(Cc2cccc(Cl)c2)C1=O` [Example 287, (R)-1-(tert-butyl)-3-(1-(3-chlorobenzyl)-3-methyl-2-oxo-2,3-dihydro-1H-pyrido[2,3-b][1,4]oxazin-6-yl)urea], the IC50 was in the range of 100 to 1000 nM.

Regarding `C[C@@H](c1cccc(OCC(F)(F)F)c1)n1c(=O)cnc2cc(NC(=O)NC(C)(C)C)ccc21` [Example 313, (S)-1-(tert-butyl)-3-(2-oxo-1-(1-(3-(2,2,2-trifluoroethoxy)phenyl)ethyl)-1,2-dihydroquinoxalin-6-yl)urea], the IC50 is more than 1000 nM.

For `C[C@H]1Oc2cc(NC(=O)NC(C)(C)C)ccc2N(Cc2nccc(C(F)(F)F)n2)C1=O` [Example 170, (R)-1-(tert-butyl)-3-(2-methyl-3-oxo-4-((4-(trifluoro-methyl)pyrimidin-2-yl)methyl)-3,4-dihydro-2H-benzo [b][1,4]oxazin-7-yl)urea], the IC50 fell in the range of 100 to 1000 nM.

`C[C@H]1Oc2cc(NC(=O)NC(C)(C)C)ccc2N(Cc2cc(Cl)ccc2Cl)C1=O` [Example 176, (R)-1-(tert-butyl)-3-(4-(2,5-dichloro-benzyl)-2-methyl-3-oxo-3,4-dihydro-2H-benzo [b][1,4]oxazin-7-yl)urea]: the IC50 is less than 100 nM.

Take `CC(C)(C)NC(=O)Nc1ccc2c(c1)CCC(=O)N2C1CCc2ccccc21` (centres unmarked) [Example 309, 1-(tert-butyl)-3-(1-(2,3-dihydro-1H-inden-1-yl)-2-oxo-1,2,3,4-tetrahydroquinolin-6-yl)urea]: the IC50 was 100 to 1000 nM.

With `C[C@H]1Oc2cc(NC(=O)NC(C)(C)C)ccc2N([C@@H](C)c2ccccc2)C1=O` [Example 269, 1-(tert-butyl)-3-((R)-2-methyl-3-oxo-4-((S)-1-phenylethyl)-3,4-dihydro-2H-benzo[b][1,4]oxazin-7-yl)urea], the half-maximal inhibitory concentration (IC50) was less than 100 nM.

Turning to `CC(C)(C)NC(=O)Nc1ccc2c(c1)OC(CF)C(=O)N2Cc1ccccc1` (centres unmarked) [Example 305, 1-[4-benzyl-2-(fluoromethyl)-3-oxo-2H-1,4-benzoxazin-7-yl]-3-tert-butylurea], the half-inhibitory concentration (IC50) was in the range of 100 to 1000 nM.

As to `C[C@H]1Oc2c(cc(C(F)(F)F)c(NC(=O)NC(C)(C)C)c2F)N(Cc2ccccc2)C1=O` [Example 354, (R)-1-(4-benzyl-8-fluoro-2-methyl-3-oxo-6-(trifluoromethyl)-3,4-dihydro-2H-benzo[b][1,4]oxazin-7-yl)-3-(tert-butyl)urea], the concentration for half-maximal inhibition (IC50) fell in the range of 100 to 1000 nM.

With `C[C@@H](c1cccc(CCOc2cn[nH]c2)c1)n1c(=O)cnc2cc(NC(=O)NC(C)(C)C)ccc21` [Example 119, (S)-1-(1-(1-(3-(2-((1H-pyrazol-4-yl)oxy)ethyl)phenyl)ethyl)-2-oxo-1,2-dihydroquinoxalin-6-yl)-3-(tert-butyl)urea], the IC50 was more than 1000 nM.

For `C[C@@H](c1cccc(CCCC(F)(F)F)c1)n1c(=O)cnc2cc(NC(=O)NC(C)(C)C)ccc21` [Example 108, (S)-1-(tert-butyl)-3-(2-oxo-1-(1-(3-(4,4,4-trifluorobutyl)phenyl)ethyl)-1,2-dihydroquinoxalin-6-yl)urea], the concentration for half-maximal inhibition (IC50) lay within 100 to 1000 nM.
